Assay results published in patent US11489184B2, “Electrolyte including mixture of active material and precursor thereof” (Foundation for Research and Business, Seoul National …, priority 2020, dated 2022).
In brackets after ≈: the same amount, converted by molar mass.

Legend:
Assay type in all cases: physicochemical
[1] = Solubility analysis of NQ derivatives in KOH by UV-vis spectroscopy; conditions: 1 M KOH solution, aqueous buffer, thermodynamic from solid, stirred for 24 hours, upper part measured by UV-vis, substance alone
Protocol: Excessive amounts of solutions of NQ derivatives were prepared. […] When a further period of time elapsed after stirring was stopped, each solution was divided into two parts (upper and lower parts). 400 microliters (L) of the upper part of the solution was collected and observed by a UV-vis spectrometer. An absorbance was measured to determine concentrations of NQ derivatives.
As a control group, a solution with a known concentration of Lawsone was prepared, and UV-vis spectroscopy of the solution was measured. When absorbance peaks of the control group and a sample of NQ derivatives were compared, concentrations of the samples were calibrated and calculated.

[2] = Analysis of reaction of NQ-S to NQ-OH in KOH (cyclic voltammetry and UV-vis spectroscopy); conditions: 0.01 M in 1 M KOH, CV; for redox potential: NQ-S right after dissolution
Protocol: Initially, 0.01 M NQ-S was dissolved in 1 M KOH and then the NQ-S solution was stayed for few hours. Changes in a chemical structure of the NQ-S solution were observed using cyclic voltammetry and UV-vis spectroscopy.
For the UV-vis spectroscopy, the following three samples were prepared: (i) NQ-S that is just dissolved in KOH (sample 1); (ii) NQ-S dissolved in KOH for 6 hours (sample 2); and (iii) pristine Lawsone (sample 3). In FIG. 2B, a peak observed at 455 nm corresponds to a peak for NQ-OH, and the peak was clearly observed in sample 2.

[3] = Half-cell cyclic voltammetry, kinetic parameters of NQ derivatives; conditions: 0.01 M in 1 M KOH; for redox potential difference (average difference of anodic and cathodic redox potentials, ΔEp,avg): glassy carbon electrode, scan rate 10 to 100 mV·s^−1
Protocol: To observe electrochemical performance of active species, various half-cell tests were performed as follows by using a computer connected potentiostat (SP-240, BioLogic). Ag/AgCl (soaked in 3.0 M NaCl) and Pt wire were used as a reference electrode and a counter electrode, respectively. […] To this end, kinetic parameters of NQ derivatives were measured and compared. To calculate electrochemical properties of NQ derivatives, the CV curves were used. […] A value of D was measured by a Randles-Sevick's equation.

[4] = Analysis of ratio of Lawsone and NQ-S (CV curves); conditions: 0.1 M NQ-S dissolved in 1 M KOH (one third transformed)
Protocol: Samples of Lawsone and NQ-S having different ratios were prepared, and a resistance and a solubility of samples were measured electrochemically (by cyclic voltammetry (CV) and electrochemical impedance spectroscopy (EIS)) and optically (by UV-vis spectroscopy).
[…]; (iv) only Lawsone (0.3 M Lawsone); and (v) only NQ-S (0.3 M NQ-S).

solubility at 24 h [1] | redox potential [2] | diffusion coefficient D ([3]; CV, Randles-Sevick's equation) | redox potential difference (average difference of anodic and cathodic redox potentials, ΔEp,avg) [3] | transformation of NQ-S into NQ-OH in KOH ([2]; staying time 6 hours) | desirable NQ-OH formed by transformation of NQ-S [4] | SMILES
420 mM (≈ 73.1 mg/mL) | −0.55 V vs Ag/AgCl | 1.75·10^−6 cm^2·s^−1 | 0.077 V |  |  | O=C1C=C(O)C(=O)c2ccccc21 [Lawsone, 2-hydroxy-1,4-naphthoquinone, reference compound]
 | −0.1 V vs Ag/AgCl |  | 0.077 V | completely transformed into NQ-OH | 0.033 M | O=C1C=C(S(=O)(=O)[O-])c2ccccc2C1=O.[Na+] [NQ-S, 1,2-naphthoquinone-4-sulfonic acid sodium salt]
